Key:
[1] = tested on: promastigotes of L. infantum; settings: cited from earlier work
[2] = tested on: murine peritoneal macrophages; assay: Detection of reactive oxygen species (DHR 123); assay type: cell-based, mouse; settings: compounds at amastigote IC50
Experimental: Mice peritoneal macrophages were adhered to 96-well opaque culture plates and then infected or not with L. amazonensis promastigotes. […] The cells were then stained with 50 μM dihydrorhodamine 123 (DHR 123, Life Technologies), and ROS was measured immediately using 500/526 nm excitation/emission wavelengths.

[3] = tested on: promastigotes of L. major; settings: cited from earlier work
[4] = tested on: promastigotes of L. donovani; settings: cited from earlier work
[5] = tested on: Leishmania amazonensis promastigotes; assay: Mitochondrial membrane potential (JC-1); assay type: cell-based; settings: 65 μM, 48 h, JC-1 red/green ratio
Experimental: Change in ΔΨm was measured using the mitochondria staining kit (Sigma-Aldrich).

[6] = tested on: Leishmania amazonensis promastigotes; assay: Cell cycle analysis (PI, flow cytometry); assay type: cell-based; settings: 48 h
Experimental: The cells were washed with PBS and fixed in 70% (v/v) ice-cold methanol/PBS for at least 1 h at 4°C. The fixed cells were washed once with PBS and then incubated in PBS supplemented with 10 μg/mL propidium iodide (PI) and 20 μg/mL RNAse at 37°C, 45 min, as reported. For each sample, 10000 events were collected on a BD FACScalibur (Becton and Dickson) and analyzed using CellQuest software.

[7] = tested on: amastigotes of L. donovani in RAW macrophages; settings: cited from earlier work
[8] = tested on: murine peritoneal macrophages; assay: Nitric oxide production by macrophages (Griess); assay type: cell-based, mouse; settings: uninfected macrophages stimulated with LPS; 33.2 μM pterostilbene, 45 μM piceatannol
Experimental: Thioglycolate-stimulated peritoneal macrophages were obtained as described above (10^6 cells/well in 24-well plate) and were activated with 1 μg/ml LPS (Sigma-Aldrich) or left untreated. […] The nitrite concentrations in the culture supernatants were determined using the Griess method. The reaction was read at 540 nm, and the concentration of NO2 ^- determined using a standard curve of sodium nitrite. The results are expressed as micromolar concentrations of nitrite.

[9] = tested on: L. amazonensis intracellular amastigotes; assay: Anti-amastigote activity in infected macrophages; assay type: cell-based, Leishmania amazonensis
Experimental: Mice peritoneal macrophages obtained after stimulation with thioglycolate for 3 days were harvested in RPMI 1640 medium (LGC Biotecnologia, São Paulo, Brazil), 20 μg/mL of gentamycin and were plated onto 13 mm^2 coverslips inside 24-well plates for adherence for 2 h at 37°C, 5% CO2. Non-adherent cells were removed, and the macrophages were incubated overnight in RPMI supplemented with 10% FCS, as described above. Adhered macrophages were infected with L. amazonensis promastigotes (stationary growth phase) at a 10:1 parasite/macrophage ratio and incubated for 1 h at 34°C, 5% CO2. Free parasites were washed out with 0.01 M phosphate buffered saline (PBS), and the cultures maintained for 24 h at 37°C, 5% CO2. Infected macrophage cultures were treated with different concentrations of the analogs for an additional 24 h at 37°C, 5% CO2. Monolayers were then washed with PBS at 37°C, fixed in methanol, and stained with Giemsa. The number of amastigotes and the percentage of infected macrophages were determined by counting at least 200 cells in duplicate cultures. Endocytic indices were obtained by multiplying the percentage of infected macrophages by the mean number of amastigotes per infected macrophage. The results were expressed as the percentage of surviving macrophages based on endocytic indices of treated and untreated macrophages as reported previously.
The selectivity index was calculated as the ratio of murine peritoneal macrophages CC50 by L. amazonensis intracellular amastigotes IC50.

[10] = Nitric oxide-trapping capacity, cell-free SNAP system; settings: 1 mM SNAP, 6 h, rutin 1 mM, pterostilbene 33.2 μM, piceatannol 45 μM, polydatin 29 μM, oxyresveratrol 30.5 μM
Experimental: A cell-free system with an NO donor was used to test the capacity of resveratrol analogs to trap NO. SNAP (s-nitroso n-acetyl DL-penicillamine, Sigma) liberates nitric oxide in solution, which is then transformed to nitrite in the medium. The addition of a NO scavenger to the SNAP solution results in nitrite decay in the supernatant. […] One milimolar rutin (Sigma), a known NO scavenger, was used as a positive control for this assay. After 6 h of incubation, the nitrite concentration was determined using the Griess method. The results are expressed as the μM concentration of nitrite calculated in comparison with the sodium nitrite standard curve.

[11] = tested on: Leishmania amazonensis promastigotes; assay: Annexin V binding assay; assay type: cell-based; settings: 48 h; piceatannol 100 μM, miltefosine 30 μM
Experimental: Double staining for annexin V-fluorescein isothiocyanate (FITC) and PI was performed with the Annexin-V apoptosis detection kit (Molecular Probes). […] They were then washed twice in cold annexin V-buffer and centrifuged at 2760 x g for 10 min. Pellets were resuspended in 20 μL of annexin V FITC, and after 15 min of incubation in the dark, 480 μL of annexin V-buffer was added according to the manufacturer instructions. Annexin V-FITC labeling was recorded on a BD FACScalibur (Becton and Dickson) and analyzed using CellQuest software.

[12] = tested on: Leishmania amazonensis promastigotes; assay: Anti-promastigote activity (XTT); assay type: cell-based; settings: Leishmania amazonensis, 48 h, L. amazonensis promastigotes, 48 h treatment, XTT; read-out: IC50 Promastigotes
Experimental: L. amazonensis (WHOM/BR/75/Josefa) promastigotes were cultured at 26°C in Schneider insect medium (Sigma), 10% fetal calf serum (Gibco-BRL, MD, US.) and 20 μg/mL of gentamycin (Schering-Plough, Rio de Janeiro, Brazil).
The leishmanicidal properties of the analogs were evaluated by measuring promastigotes’ mitochondrial activity using the XTT method with 2,3-bis-[2-methoxy-4-nitro-5-sulphophenyl]-2H-tetrazolium-5-carboxanilida, Sigma) as described previously. […] Sodium azide (10 μM) was used as a control, and the reaction product was read at 450 nm.

[13] = Cytotoxicity for host macrophages (XTT); assay type: cell-based; settings: mouse, murine peritoneal macrophages
Experimental: After 3 h of incubation, the reaction product was read at 450 nm. The results are expressed in percentage of viable cells compared to untreated control.

[14] = pterostilbene 17.7 μM, piceatannol 65 μM, polydatin 95.4 μM, oxyresveratrol 65 μM, mean ± SEM

Oc1cc(O)cc(/C=C/c2ccc(O)c(O)c2)c1 [Piceatannol, trans-3,4,3',5'-tetrahydroxystilbene]
IC50 [1]: 16 µM
IC50 promastigotes of L. infantum [1]: 3.9 mg/L
Reduction of ROS levels ([2]; L. amazonensis infected macrophages): 5.8 fold
Reduction of ROS levels ([2]; infected and PMA-stimulated macrophages): 6.6 fold
Reduction of ROS levels ([2]; uninfected macrophages stimulated with 1 μg/mL PMA): 4.3 fold
Reduction of ROS levels ([2]; uninfected macrophages): 3.4 fold
IC50 [3]: 23.3 µM
IC50 promastigotes of L. major [3]: 5.7 mg/L
IC50 [4]: 17.2 µM
IC50 promastigotes of L. donovani [4]: 4.2 mg/L
Reduction in the mitochondrial membrane potential (ΔΨm) [5]: 2.8 fold
Decrease of cells in G0-G1 phase ([6]; 65 μM): 1.7 fold
Increase of cells in Sub-G0 phase ([6]; 65 μM): 5 fold
% cells in different stages of the cell cycle: G0/G1 [6, 14]: 21.890 ± 0.840 %
% cells in different stages of the cell cycle: G2/M [6, 14]: 14.273 ± 0.966%
% cells in different stages of the cell cycle: S [6, 14]: 8.167 ± 0.522%
% cells in different stages of the cell cycle: Sub-G0 [6, 14]: 30.990 ± 1.544 %
% cells: Hyperploidies [6, 14]: 24.947 ± 0.801%
IC50 [7]: 30.3 µM
IC50 amastigotes of L. donovani in RAW macrophages [7]: 7.4 mg/L
Decrease of NO production [8]: 5.0 fold
IC50 ([9]; Leishmania amazonensis, Peritoneal macrophage, L. amazonensis in murine peritoneal macrophages, 24 h treatment): 45 µM
SI (selectivity index; therapeutic index) ([9]; ratio of CC50 on murine peritoneal macrophages to IC50 on L. amazonensis intracellular amastigotes): >8.9
Decrease of NO levels (NO scavenging) [10]: did not reduce the levels of NO
Increase of annexin-V positive promastigotes in relation to untreated control [11]: 2.5 fold
IC50 [12]: 65 µM
CC50 at 24 h [13]: > 400 µM

From PMC4627731, “Leishmanicidal Effect of Synthetic trans-Resveratrol Analogs” (PLoS ONE, 2015)
